Measurements as given in patent US7091202B2, “4-arylspirocycloalkyl-2-aminopyrimidine carboxamide KCNQ potassium channel modulators” (Bristol-Myers Squibb Company, priority 2004, dated 2006).

The molecules below were run against T1, hQ23 (HEK-293 cell line stably transfected with one of the members of the KCNQ family) (Homo sapiens, UniProt O43525+O43526) (assay: Thallium flux assay for KCNQ channel blockers (FLIPR, BTC dye)). Conditions: hQ23 cells, thallium flux.
T1 construct: expressed in transfected cells; host or cells: HEK-293, stably transfected
T1 sequence (O43526 whole entry): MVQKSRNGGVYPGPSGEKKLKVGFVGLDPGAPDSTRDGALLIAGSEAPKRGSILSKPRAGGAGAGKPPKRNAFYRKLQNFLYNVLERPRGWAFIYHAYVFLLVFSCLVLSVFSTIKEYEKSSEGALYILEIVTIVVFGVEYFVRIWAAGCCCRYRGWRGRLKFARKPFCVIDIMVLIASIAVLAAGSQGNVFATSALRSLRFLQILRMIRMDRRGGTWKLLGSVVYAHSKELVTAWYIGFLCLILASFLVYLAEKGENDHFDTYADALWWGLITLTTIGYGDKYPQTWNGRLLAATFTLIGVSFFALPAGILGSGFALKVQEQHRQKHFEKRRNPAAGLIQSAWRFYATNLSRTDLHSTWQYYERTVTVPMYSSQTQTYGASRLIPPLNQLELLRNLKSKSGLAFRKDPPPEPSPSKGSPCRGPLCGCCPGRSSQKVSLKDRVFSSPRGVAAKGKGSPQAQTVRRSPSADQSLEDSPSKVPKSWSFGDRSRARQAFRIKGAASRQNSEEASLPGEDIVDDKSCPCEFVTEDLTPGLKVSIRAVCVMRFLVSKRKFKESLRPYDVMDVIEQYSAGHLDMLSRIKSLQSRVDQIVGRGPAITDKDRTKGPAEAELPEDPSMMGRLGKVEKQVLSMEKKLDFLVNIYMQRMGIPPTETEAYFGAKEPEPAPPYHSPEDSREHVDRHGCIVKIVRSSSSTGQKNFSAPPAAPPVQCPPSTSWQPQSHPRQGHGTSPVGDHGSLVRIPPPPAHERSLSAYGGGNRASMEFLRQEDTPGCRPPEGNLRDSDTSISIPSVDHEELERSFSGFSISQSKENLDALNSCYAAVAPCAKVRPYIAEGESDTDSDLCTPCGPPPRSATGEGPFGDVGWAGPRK
T1 sequence (O43525 whole entry): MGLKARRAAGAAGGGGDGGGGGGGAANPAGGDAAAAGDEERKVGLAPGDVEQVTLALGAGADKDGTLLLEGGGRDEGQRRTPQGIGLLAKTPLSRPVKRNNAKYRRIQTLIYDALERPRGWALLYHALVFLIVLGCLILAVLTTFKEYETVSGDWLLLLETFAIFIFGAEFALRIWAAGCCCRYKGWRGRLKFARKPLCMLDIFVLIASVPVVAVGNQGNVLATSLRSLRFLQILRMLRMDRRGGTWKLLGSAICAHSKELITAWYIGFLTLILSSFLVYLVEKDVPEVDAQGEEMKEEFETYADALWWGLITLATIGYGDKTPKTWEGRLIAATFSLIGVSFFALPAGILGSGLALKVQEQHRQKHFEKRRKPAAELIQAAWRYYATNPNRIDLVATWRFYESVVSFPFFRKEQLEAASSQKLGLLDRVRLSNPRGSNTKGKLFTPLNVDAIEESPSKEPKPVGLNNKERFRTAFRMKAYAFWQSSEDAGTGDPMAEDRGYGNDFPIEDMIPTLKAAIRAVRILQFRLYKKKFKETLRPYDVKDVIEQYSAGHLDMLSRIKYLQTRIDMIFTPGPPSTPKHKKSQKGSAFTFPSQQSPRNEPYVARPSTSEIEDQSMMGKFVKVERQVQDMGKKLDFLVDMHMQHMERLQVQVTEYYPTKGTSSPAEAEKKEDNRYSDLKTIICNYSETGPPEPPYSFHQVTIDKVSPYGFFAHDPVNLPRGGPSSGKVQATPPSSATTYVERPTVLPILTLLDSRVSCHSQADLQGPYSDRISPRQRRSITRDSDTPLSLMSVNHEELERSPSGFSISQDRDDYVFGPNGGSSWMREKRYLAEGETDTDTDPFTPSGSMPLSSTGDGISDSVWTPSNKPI
Assay type: cell-based
Summary of the method: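 HEK-293 cells stably expressing a KCNQ member, loaded with BTC-AM (2 μM) in chloride-free buffer, pH 7.3; compounds added at 1% DMSO, then Tl2SO4 stimulus on FLIPR (488/540 nm, 60 s). Minimal active concentration set at ≥4 SD above negative control; IC50 from 10-point 1:3 series, single-site logistic fit versus the positive-control blocker.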

EC50 [µM] | Structure (SMILES)
0.01 | CC1CCN(c2ncc(C(=O)NCc3ccc(C(F)(F)F)cc3)c(C3(c4ccccc4)CCCC3)n2)CC1 [Example 138, 5-pyrimidinecarboxamide, 2-(4-methyl-1-piperidinyl)-4-(1-phenylcyclopentyl)-N-[[4-(trifluoromethyl)phenyl]methyl]-]
0.01 | CC1CCN(c2ncc(C(=O)NCc3ccc(Cl)cc3Cl)c(C3(c4ccc(Cl)cc4)CCCC3)n2)CC1 [Example 181, 5-pyrimidinecarboxamide, 4-[1-(4-chlorophenyl)cyclopentyl]-N-[(2,4-dichlorophenyl)methyl]-2-(4-methyl-1-piperidinyl)-]

Same assay, conditions: hQ23 cells, thallium flux assay

Structure (SMILES) | EC50 [µM]
CC1CCC(Nc2ncc(C(=O)NC(C)c3ccc(F)cc3)c(C3(c4ccc(F)cc4)CCCC3)n2)CC1 (stereo not drawn) [Example 281, 5-pyrimidinecarboxamide, 4-[1-(4-fluorophenyl)cyclopentyl]-N-[1-(4-fluorophenyl)ethyl]-2-[(4-methylcyclohexyl)amino]-] | 0.118
CC(NC(=O)c1cnc(N2CCN(C)CC2)nc1C1(c2ccc(F)cc2)CCCC1)c1ccc(F)cc1 (stereo not drawn) [Example 283, 5-pyrimidinecarboxamide, 4-[1-(4-fluorophenyl)cyclopentyl]-N-[1-(4-fluorophenyl)ethyl]-2-(4-methyl-1-piperazinyl)-] | 0.752
CC1CCCN(c2ncc(C(=O)NC(C)c3ccc(F)cc3)c(C3(c4ccc(F)cc4)CCCC3)n2)C1 (stereo not drawn) [Example 284, 5-pyrimidinecarboxamide, 4-[1-(4-fluorophenyl)cyclopentyl]-N-[1-(4-fluorophenyl)ethyl]-2-(3-methyl-1-piperidinyl)-] | 0.078
CC1CCN(c2ncc(C(=O)NC(C)c3ccc(F)cc3)c(C3(c4ccc(F)cc4)CCCC3)n2)CC1 (stereo not drawn) [Example 285, 5-pyrimidinecarboxamide, 4-[1-(4-fluorophenyl)cyclopentyl]-N-[1-(4-fluorophenyl)ethyl]-2-(4-methyl-1-piperidinyl)-] | 0.095
CCC(C)Nc1ncc(C(=O)NC(C)c2ccc(F)cc2)c(C2(c3ccc(F)cc3)CCCC2)n1 (stereo not drawn) [Example 286, 5-pyrimidinecarboxamide, 4-[1-(4-fluorophenyl)cyclopentyl]-N-[1-(4-fluorophenyl)ethyl]-2-[(1-methylpropyl)amino]-] | 0.852
CC(NC(=O)c1cnc(NC2CCCC2)nc1C1(c2ccc(F)cc2)CCCC1)c1ccc(F)cc1 (stereo not drawn) [Example 287, 5-pyrimidinecarboxamide, 2-(cyclopentylamino)-4-[1-(4-fluorophenyl)cyclopentyl]-N-[1-(4-fluorophenyl)ethyl]-] | 0.573

The next lines start with the values.

EC50 [µM] | Structure (SMILES)
0.017 | CC1CCN(c2ncc(C(=O)NCc3ccc(Cl)cc3Cl)c(C3(c4ccc(F)cc4)CCCC3)n2)CC1 [Example 263, 5-pyrimidinecarboxamide, N-[(2,4-dichlorophenyl)methyl]-4-[1-(4-fluorophenyl)cyclopentyl]-2-(4-methyl-1-piperidinyl)-]
0.029 | CC1CCC(Nc2ncc(C(=O)NCc3cc(F)cc(C(F)(F)F)c3)c(C3(c4ccc(F)cc4)CCCC3)n2)CC1 (stereo not drawn) [Example 274, 5-pyrimidinecarboxamide, 4-[1-(4-fluorophenyl)cyclopentyl]-N-[[3-fluoro-5-(trifluoromethyl)phenyl]methyl]-2-[(4-methylcyclohexyl)amino]-]
0.024 | O=C(NCc1cc(F)cc(C(F)(F)F)c1)c1cnc(N2CCCC2)nc1C1(c2ccc(F)cc2)CCCC1 [Example 275, 5-pyrimidinecarboxamide, 4-[1-(4-fluorophenyl)cyclopentyl]-N-[[3-fluoro-5-(trifluoromethyl)phenyl]methyl]-2-(1-pyrrolidinyl)-]
0.327 | CN1CCN(c2ncc(C(=O)NCc3cc(F)cc(C(F)(F)F)c3)c(C3(c4ccc(F)cc4)CCCC3)n2)CC1 [Example 276, 5-pyrimidinecarboxamide, 4-[1-(4-fluorophenyl)cyclopentyl]-N-[[3-fluoro-5-(trifluoromethyl)phenyl]methyl]-2-(4-methyl-1-piperazinyl)-]
0.022 | CC1CCCN(c2ncc(C(=O)NCc3cc(F)cc(C(F)(F)F)c3)c(C3(c4ccc(F)cc4)CCCC3)n2)C1 (stereo not drawn) [Example 277, 5-pyrimidinecarboxamide, 4-[1-(4-fluorophenyl)cyclopentyl]-N-[[3-fluoro-5-(trifluoromethyl)phenyl]methyl]-2-(3-methyl-1-piperidinyl)-]
0.01 | CC1CCN(c2ncc(C(=O)NCc3cc(F)cc(C(F)(F)F)c3)c(C3(c4ccc(F)cc4)CCCC3)n2)CC1 [Example 278, 5-pyrimidinecarboxamide, 4-[1-(4-fluorophenyl)cyclopentyl]-N-[[3-fluoro-5-(trifluoromethyl)phenyl]methyl]-2-(4-methyl-1-piperidinyl)-]
0.055 | CCC(C)Nc1ncc(C(=O)NCc2cc(F)cc(C(F)(F)F)c2)c(C2(c3ccc(F)cc3)CCCC2)n1 (stereo not drawn) [Example 279, 5-pyrimidinecarboxamide, 4-[1-(4-fluorophenyl)cyclopentyl]-N-[[3-fluoro-5-(trifluoromethyl)phenyl]methyl]-2-[(1-methylpropyl)amino]-]
0.06 | O=C(NCc1cc(F)cc(C(F)(F)F)c1)c1cnc(NC2CCCC2)nc1C1(c2ccc(F)cc2)CCCC1 [Example 280, 5-pyrimidinecarboxamide, 2-(cyclopentylamino)-4-[1-(4-fluorophenyl)cyclopentyl]-N-[[3-fluoro-5-(trifluoromethyl)phenyl]methyl]-]
0.594 | CC(NC(=O)c1cnc(N2CCCC2)nc1C1(c2ccc(F)cc2)CCCC1)c1ccc(F)cc1 (stereo not drawn) [Example 282, 5-pyrimidinecarboxamide, 4-[1-(4-fluorophenyl)cyclopentyl]-N-[1-(4-fluorophenyl)ethyl]-2-(1-pyrrolidinyl)-]
0.075 | CC1CCN(c2ncc(C(=O)NCc3ccc(C(F)(F)F)cc3)c(C3(c4ccc(F)cc4)CCCC3)n2)CC1 [Example 288, 5-pyrimidinecarboxamide, 4-[1-(4-fluorophenyl)cyclopentyl]-2-(4-methyl-1-piperidinyl)-N-[[4-(trifluoromethyl)phenyl]methyl]-]

What follows are molecules tested against mKCNQ2 (Mus musculus, UniProt Q9Z351) (assay: KCNQ patch-clamp: two-electrode voltage clamp on Xenopus laevis oocytes injected with mKCNQ2 cRNA). Conditions: 5 mM TEA, measured at −40 mV membrane voltage, n=112.
Chain of mKCNQ2 (Q9Z351 whole entry): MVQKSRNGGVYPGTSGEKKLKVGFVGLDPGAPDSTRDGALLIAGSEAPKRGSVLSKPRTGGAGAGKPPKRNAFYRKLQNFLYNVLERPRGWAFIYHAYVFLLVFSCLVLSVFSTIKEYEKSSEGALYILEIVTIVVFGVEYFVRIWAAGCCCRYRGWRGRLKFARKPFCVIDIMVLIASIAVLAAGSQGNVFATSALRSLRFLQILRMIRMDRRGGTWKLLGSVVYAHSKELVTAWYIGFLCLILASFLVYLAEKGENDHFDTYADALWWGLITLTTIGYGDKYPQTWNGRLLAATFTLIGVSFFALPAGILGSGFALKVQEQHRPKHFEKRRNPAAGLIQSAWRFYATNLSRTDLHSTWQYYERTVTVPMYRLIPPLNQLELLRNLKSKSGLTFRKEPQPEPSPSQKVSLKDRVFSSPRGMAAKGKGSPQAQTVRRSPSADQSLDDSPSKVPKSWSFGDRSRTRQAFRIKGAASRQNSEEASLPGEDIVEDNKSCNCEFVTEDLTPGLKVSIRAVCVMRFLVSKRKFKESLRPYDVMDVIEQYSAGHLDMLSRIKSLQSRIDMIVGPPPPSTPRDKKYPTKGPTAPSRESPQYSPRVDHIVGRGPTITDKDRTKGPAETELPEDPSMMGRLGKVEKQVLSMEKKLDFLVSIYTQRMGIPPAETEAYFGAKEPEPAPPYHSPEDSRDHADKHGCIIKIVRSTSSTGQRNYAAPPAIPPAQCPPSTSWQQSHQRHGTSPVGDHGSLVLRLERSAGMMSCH
Assay type: cell-based
Experimental: KCNQ Patch-clamp. Frog oocytes were surgically harvested from mature Xenopus laevis that had been anesthetized with 0.15% 3-aminobenzoic acid ethyl ester (tricaine). Only late stage V and VI oocytes were selected for cRNA injection, and the overlying follicle cell layers were enzymatically removed. Each oocyte was injected with approximately 60 ng of the mKCNQ2 cRNA. Following injection, oocytes were maintained at 17° C. in ND96 medium consisting of (in mM): NaCl, 90; KCl, 1.0; CaCl2, 1.0; MgCl2, 1.0; HEPES, 5.0; (pH 7.5) and supplemented with heat-inactivated horse serum (5%) and penicillin/streptomycin (5%).
Two-electrode voltage clamp techniques were used to record membrane currents; recording commenced 3–7 days following cRNA injection (Gribkoff, V. K., et al., Mol. Pharmacol. 1996, 50(1), 206–217). For recording and compound application, oocytes were placed in a recording chamber and incubated in Modified Barth's Solution (MBS) consisting of (in mM): NaCl, 88; NaHCO3, 2.4; KCI, 1.0; HEPES, 10; MgSO4, 0.82; Ca(NO3)2, 0.33; CaCl2, 0.41; (pH 7.5). Voltage-clamp protocols consisted of a series of 4 second duration depolarizing voltage steps from a holding potential of −90 mV to a maximal potential of +40 mV in 10 mV intervals. A family of outward currents was generated under control conditions for comparison with currents elicited in the presence of an experimental compound. Control or drug solutions were continually introduced into the recording chamber using a gravity-flow system with an in-line electronic valve array. A minimum of 5 oocytes was used for each drug concentration; drug concentrations ranged from 0.001 μM to 10 μM. During a single experiment, an oocyte was exposed to as many as three drug concentrations sequentially administered for 5 minutes each. All experiments ended with a 5 minute application of TEA (5 mM), a non-selective, but effective blocker of KCNQ channels. Typically, 5 mM TEA produced a maximal blockade of outward current when measured at the −40 mV membrane voltage (94.6+/−0.5% inhibition, n=112). In this manner, all drug effects could be presented as a percentage of TEA blockade, controlling for the variable levels of channel expression from oocyte to oocyte. Table 1 discloses data for representative examples. Data are expressed as percent inhibition relative to TEA blockade at a membrane voltage of −40 mV: A>50% TEA blockage at 100 nM, B>50% TEA blockage at 1 μM, C<50% TEA blockage at 1.0 μM.

Structure (SMILES) | maximal blockade of outward current (% inhibition)
CC[N+](CC)(CC)CC [TEA, reference compound] | 94.6+/−0.5%

Same assay, conditions: percent inhibition relative to 5 mM TEA blockade at a membrane voltage of −40 mV; mKCNQ2 in oocytes

Percent TEA blockage | Structure (SMILES)
A (A > 50% TEA blockage at 100 nM) | CC1CCN(c2ncc(C(=O)NC(C)c3cccnc3)c(C3(c4ccccc4)CCCC3)n2)CC1 (stereo not drawn) [Example 16, 2-(4-Methyl-piperidin-1-yl)-4-(1-phenyl-cyclopentyl)-pyrimidine-5-carboxylic acid (1-pyridin-3-yl-ethyl)-amide]
B (B > 50% TEA blockage at 1 μM) | CC1CCN(c2ncc(C(=O)NCc3ccc(C(F)(F)F)cc3)c(C3(c4ccccc4)CCCC3)n2)CC1 [Example 138, 5-pyrimidinecarboxamide, 2-(4-methyl-1-piperidinyl)-4-(1-phenylcyclopentyl)-N-[[4-(trifluoromethyl)phenyl]methyl]-]
A (A > 50% TEA blockage at 100 nM) | CC1CCN(c2ncc(C(=O)NCc3ccc(Cl)cc3Cl)c(C3(c4ccc(Cl)cc4)CCCC3)n2)CC1 [Example 181, 5-pyrimidinecarboxamide, 4-[1-(4-chlorophenyl)cyclopentyl]-N-[(2,4-dichlorophenyl)methyl]-2-(4-methyl-1-piperidinyl)-]
A (A > 50% TEA blockage at 100 nM) | CC1CCN(c2ncc(C(=O)NCc3ccc(Cl)cc3Cl)c(C3(c4ccc(F)cc4)CCCC3)n2)CC1 [Example 263, 5-pyrimidinecarboxamide, N-[(2,4-dichlorophenyl)methyl]-4-[1-(4-fluorophenyl)cyclopentyl]-2-(4-methyl-1-piperidinyl)-]
B (B > 50% TEA blockage at 1 μM) | O=C(NCc1ccc2c(c1)OCO2)c1cnc(N2CCCC2)nc1C1(c2ccccc2)CCCCC1 [Example 299, N-(1,3-benzodioxol-5-ylmethyl)-4-[1-phenylcyclohexyl]-2-(1-pyrrolidinyl)-5-pyrimidinecarboxamide]
